Several values for one entry are separate records, joined by “and”; a condition that tells them apart may be missing. Equal values may be shown once.
Molecular target: T1, mut-GVHH PmIleRS2 (Priestia megaterium, UniProt A0A0B6AVD3, G56H/H54G)
T1 sequence (A0A0B6AVD3 1-1032 H54G/G56H): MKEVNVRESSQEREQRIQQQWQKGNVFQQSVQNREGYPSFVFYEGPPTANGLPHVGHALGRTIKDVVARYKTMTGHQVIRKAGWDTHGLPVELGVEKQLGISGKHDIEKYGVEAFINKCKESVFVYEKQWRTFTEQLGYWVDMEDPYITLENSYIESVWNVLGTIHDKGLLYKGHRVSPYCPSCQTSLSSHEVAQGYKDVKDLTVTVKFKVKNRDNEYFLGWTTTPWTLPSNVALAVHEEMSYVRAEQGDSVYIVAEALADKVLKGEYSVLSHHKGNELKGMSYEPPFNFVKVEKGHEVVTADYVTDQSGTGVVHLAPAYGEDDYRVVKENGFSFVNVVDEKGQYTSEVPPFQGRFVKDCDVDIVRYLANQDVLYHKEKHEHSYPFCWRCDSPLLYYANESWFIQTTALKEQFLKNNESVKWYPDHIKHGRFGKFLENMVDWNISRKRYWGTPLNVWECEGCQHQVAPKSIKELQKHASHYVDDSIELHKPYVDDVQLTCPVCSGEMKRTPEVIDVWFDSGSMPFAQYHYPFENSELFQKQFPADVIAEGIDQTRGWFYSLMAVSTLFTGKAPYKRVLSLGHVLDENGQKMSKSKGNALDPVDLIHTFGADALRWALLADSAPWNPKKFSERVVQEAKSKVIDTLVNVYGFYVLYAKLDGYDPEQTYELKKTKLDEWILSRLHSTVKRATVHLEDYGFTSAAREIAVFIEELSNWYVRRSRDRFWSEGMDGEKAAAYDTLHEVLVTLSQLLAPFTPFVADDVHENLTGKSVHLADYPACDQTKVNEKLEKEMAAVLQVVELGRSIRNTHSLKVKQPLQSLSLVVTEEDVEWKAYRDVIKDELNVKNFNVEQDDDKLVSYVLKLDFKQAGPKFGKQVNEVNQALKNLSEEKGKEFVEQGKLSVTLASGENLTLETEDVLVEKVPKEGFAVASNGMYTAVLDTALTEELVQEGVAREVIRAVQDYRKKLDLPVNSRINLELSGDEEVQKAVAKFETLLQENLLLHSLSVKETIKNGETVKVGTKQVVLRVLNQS
Assay: ATP-PPi exchange assay, mupirocin inhibition of amino acid activation
Type: biochemical, Priestia (Bacillus) megaterium
Method: L-Ile and ATP concentrations ranged from 1/10 KM to 10 KM values. When measuring the KI towards one of the substrates, the other was held in saturation (concentrations at least 10 KM). The aliquots of the reaction mixture (1–2.5 μl) were quenched in 2 volumes of 500 mM NaOAc pH = 4.5, 0.1% SDS, and formed ^32P-ATP was separated from the remaining ^32P-PPi by thin-layer chromatography on Polygram CEL 300 PEI UV254 TLC plates (Macherey-Nagel, cat: 801063) using 750 mM KH2PO4 pH=3.5, 4 M urea buffer. Visualization and quantification of the signals was performed using a Typhoon Phosphoimager 5 (General Electric) and accompanying ImageQuant™ TL software (SV: 10.2). The kinetic constants were determined using a global fit option of the competitive inhibition model of GraphPad Prism 6 software (SV: 6.01). All experiments were performed in triplicates. The kcat was determined by dividing the maximal velocity, VM, with the used enzyme concentration. […]
variable substrate (ATP or Ile) was varied in the range of 0.1 KM to 10 KM. The other substrate (Ile or ATP) was kept in excess at 5 to 10 KM. Data were globally fitted to the competitive inhibition model using GraphPad prism 6.01 for Windows software. The values represent the average value ± SD of three independent experiments. Source data are provided as a Source Data file.

C/C(=C\C(=O)OCCCCCCCCC(=O)O)C[C@@H]1OC[C@H](C[C@@H]2O[C@H]2[C@@H](C)[C@H](C)O)[C@@H](O)[C@H]1O [mupirocin]
Ki (KI (MUP)ATP, amino acid activation assay, ATP as variable substrate, average ± SD of three independent experiments): 480 ± 10 µM | Ki (KI (MUP)Ile, amino acid activation step, ATP/PPi exchange assay, Ile varied, ATP saturating, average ± SD of three independent experiments): 460 ± 10 µM | Ki (KI, single replicates, mupirocin inhibition towards Ile, GraphPad Prism output, Repl1-Repl3): 470 µM and 480 µM and 420 µM | vo (c (mupirocin) = 0.5 mM, c (Ile) 100.0 μM, Replica 1): 0.01849 mM/min | vo (c (mupirocin) = 0.5 mM, c (Ile) 100.0 μM, Replica 2): 0.01948 mM/min | vo (c (mupirocin) = 0.5 mM, c (Ile) 250.0 μM, Replica 1): 0.03623 mM/min | vo (c (mupirocin) = 0.5 mM, c (Ile) 250.0 μM, Replica 2): 0.03682 mM/min | vo (c (mupirocin) = 0.5 mM, c (Ile) 250.0 μM, Replica 3): 0.03653 mM/min | vo (c (mupirocin) = 0.5 mM, c (Ile) 500.0 μM, Replica 1): 0.05582 mM/min | vo (c (mupirocin) = 0.5 mM, c (Ile) 500.0 μM, Replica 2): 0.05871 mM/min | vo (c (mupirocin) = 0.5 mM, c (Ile) 500.0 μM, Replica 3): 0.05786 mM/min | vo (c (mupirocin) = 0.5 mM, c (Ile) 1000.0 μM, Replica 1): 0.07169 mM/min | vo (c (mupirocin) = 0.5 mM, c (Ile) 1000.0 μM, Replica 2): 0.07587 mM/min | vo (c (mupirocin) = 0.5 mM, c (Ile) 1000.0 μM, Replica 3): 0.07605 mM/min | vo (c (mupirocin) = 0.5 mM, c (Ile) 1500.0 μM, Replica 1): 0.08634 mM/min | vo (c (mupirocin) = 0.5 mM, c (Ile) 1500.0 μM, Replica 2): 0.08442 mM/min | vo (c (mupirocin) = 0.5 mM, c (Ile) 1500.0 μM, Replica 3): 0.08419 mM/min | vo (c (mupirocin) = 1.0 mM, c (Ile) 100.0 μM, Replica 1): 0.01236 mM/min | vo (c (mupirocin) = 1.0 mM, c (Ile) 100.0 μM, Replica 2): 0.01246 mM/min | vo (c (mupirocin) = 1.0 mM, c (Ile) 100.0 μM, Replica 3): 0.01228 mM/min | vo (c (mupirocin) = 1.0 mM, c (Ile) 250.0 μM, Replica 1): 0.0294 mM/min | vo (c (mupirocin) = 1.0 mM, c (Ile) 250.0 μM, Replica 2): 0.02992 mM/min | vo (c (mupirocin) = 1.0 mM, c (Ile) 250.0 μM, Replica 3): 0.02794 mM/min | vo (c (mupirocin) = 1.0 mM, c (Ile) 500.0 μM, Replica 1): 0.04465 mM/min | vo (c (mupirocin) = 1.0 mM, c (Ile) 500.0 μM, Replica 2): 0.04713 mM/min | vo (c (mupirocin) = 1.0 mM, c (Ile) 500.0 μM, Replica 3): 0.04492 mM/min | vo (c (mupirocin) = 1.0 mM, c (Ile) 1000.0 μM, Replica 1): 0.06444 mM/min | vo (c (mupirocin) = 1.0 mM, c (Ile) 1000.0 μM, Replica 2): 0.06152 mM/min | vo (c (mupirocin) = 1.0 mM, c (Ile) 1000.0 μM, Replica 3): 0.06395 mM/min | vo (c (mupirocin) = 1.0 mM, c (Ile) 1500.0 μM, Replica 1): 0.07511 mM/min | vo (c (mupirocin) = 1.0 mM, c (Ile) 1500.0 μM, Replica 2): 0.07278 mM/min | vo (c (mupirocin) = 1.0 mM, c (Ile) 1500.0 μM, Replica 3): 0.07621 mM/min | vo (c (mupirocin) = 2.5 mM, c (Ile) 100.0 μM, Replica 1): 0.00609 mM/min | vo (c (mupirocin) = 2.5 mM, c (Ile) 100.0 μM, Replica 2): 0.00589 mM/min | vo (c (mupirocin) = 2.5 mM, c (Ile) 100.0 μM, Replica 3): 0.00628 mM/min | vo (c (mupirocin) = 2.5 mM, c (Ile) 250.0 μM, Replica 1): 0.01433 mM/min | vo (c (mupirocin) = 2.5 mM, c (Ile) 250.0 μM, Replica 2): 0.01642 mM/min | vo (c (mupirocin) = 2.5 mM, c (Ile) 250.0 μM, Replica 3): 0.01353 mM/min | vo (c (mupirocin) = 2.5 mM, c (Ile) 500.0 μM, Replica 1): 0.02701 mM/min | vo (c (mupirocin) = 2.5 mM, c (Ile) 500.0 μM, Replica 2): 0.02762 mM/min | vo (c (mupirocin) = 2.5 mM, c (Ile) 500.0 μM, Replica 3): 0.02637 mM/min | vo (c (mupirocin) = 2.5 mM, c (Ile) 1000.0 μM, Replica 1): 0.042 mM/min | vo (c (mupirocin) = 2.5 mM, c (Ile) 1000.0 μM, Replica 2): 0.04503 mM/min | vo (c (mupirocin) = 2.5 mM, c (Ile) 1000.0 μM, Replica 3): 0.03982 mM/min | vo (c (mupirocin) = 2.5 mM, c (Ile) 1500.0 μM, Replica 1): 0.05219 mM/min | vo (c (mupirocin) = 2.5 mM, c (Ile) 1500.0 μM, Replica 2): 0.055 mM/min | vo (c (mupirocin) = 2.5 mM, c (Ile) 1500.0 μM, Replica 3): 0.05194 mM/min | vo (c (mupirocin) = 5.0 mM, c (Ile) 100.0 μM, Replica 1): 0.00403 mM/min | vo (c (mupirocin) = 5.0 mM, c (Ile) 100.0 μM, Replica 2): 0.00438 mM/min | vo (c (mupirocin) = 5.0 mM, c (Ile) 100.0 μM, Replica 3): 0.00348 mM/min | vo (c (mupirocin) = 5.0 mM, c (Ile) 250.0 μM, Replica 1): 0.0082 mM/min | vo (c (mupirocin) = 5.0 mM, c (Ile) 250.0 μM, Replica 2): 0.00786 mM/min

Source: article PMC10485003, “Antibiotic hyper-resistance in a class I aminoacyl-tRNA synthetase with altered active site signature motif” (Nature Communications, 2023)
